Target: T1, LmrR (Lactococcus cremoris, UniProt A2RI36)
T1 construct: gene llmg_0323; C-terminal His6-tagged LmrR (homodimer)
Experiment: ITC ([…] stoichiometry, […] °C); supported by NMR titration
Type: binding

T1 sequence (A2RI36 entry or part of it): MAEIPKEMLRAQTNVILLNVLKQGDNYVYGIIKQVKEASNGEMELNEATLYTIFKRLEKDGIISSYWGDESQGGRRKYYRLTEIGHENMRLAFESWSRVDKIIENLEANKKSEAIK

## Cc1cc2nc3c(=O)[nH]c(=O)nc-3n(C[C@H](O)[C@H](O)[C@H](O)CO)c2cc1C [riboflavin]
  Kd: 330 nM

— publication PMC5428041, “Dynamic equilibrium on DNA defines transcriptional regulation of a multidrug binding transcriptional repressor, LmrR” (Scientific Reports, 2017)
